The values below come from PubChem BioAssay (NCI).

Some test systems named below: TK-10 renal; U251 CNS; DU-145 prostate; MDA-N; SK-MEL-5 melanoma; LOX IMVI melanoma; OVCAR-5 ovarian; KM12 colon; HCT-116 colon; OVCAR-4 ovarian.
Assay in all cases: DTP human tumour cell line panel, 48 h

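Compound exposure: 48 hours, 5 concentrations, 96-well plates. TGI denotes the concentration required for complete inhibition of growth.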

A word on the TGI: it is the concentration at which net growth stops. Low values mean more potent growth arrest, high ones less potent growth arrest. `Cc1n(Cc2ccccc2)nc2sc(N)n[n+]12`: the TGI in the assay on TK-10 renal, in the assay on U251 CNS, in the assay with DU-145 prostate, with MDA-N, in the assay with SK-MEL-5 melanoma and with LOX IMVI melanoma was > 100 µM each time. Further, the TGI in the assay with OVCAR-5 ovarian, in the assay with KM12 colon, in the assay with HCT-116 colon and in the assay on OVCAR-4 ovarian was > 100 µM throughout.

Turning to `O=c1oc2c(Cl)cc(Cl)cc2cc1C1=CSC2=NCCN12`, the TGI in the assay on TK-10 renal is > 100 µM; in the assay with U251 CNS, > 100 µM; with DU-145 prostate, > 100 µM; with MDA-N it was > 100 µM; with SK-MEL-5 melanoma, 88.8 µM; with LOX IMVI melanoma, > 100 µM. The total growth inhibition concentration (TGI) in the assay on OVCAR-5 ovarian, in the assay on KM12 colon, in the assay on HCT-116 colon and in the assay on OVCAR-4 ovarian was > 100 µM throughout.

For `CC(=O)Oc1ccc2c3c1O[C@H]1[C@H](O)CC[C@@]4(O)[C@@H](C2)N(C)CC[C@]314`, the TGI with TK-10 renal, in the assay with U251 CNS, in the assay on DU-145 prostate, with MDA-N, in the assay on SK-MEL-5 melanoma and with LOX IMVI melanoma was > 100 µM throughout. Moreover, the TGI with OVCAR-5 ovarian, in the assay with KM12 colon, with HCT-116 colon and with OVCAR-4 ovarian was > 100 µM throughout.

As for `Fc1ccc(C(OCCN2CC3CCC(C2)N3CCCc2ccccc2)c2ccc(F)cc2)cc1`, the total growth inhibition concentration (TGI) in the assay on TK-10 renal was determined as 24 µM; in the assay on U251 CNS, 16.1 µM; with DU-145 prostate it was 22.6 µM; with MDA-N, 11.8 µM; in the assay on SK-MEL-5 melanoma it was 3.4 µM; with LOX IMVI melanoma it was 13 µM. Moreover, the TGI in the assay on OVCAR-5 ovarian is 23.3 µM; in the assay with KM12 colon, 12.2 µM; in the assay on HCT-116 colon, 11.3 µM; in the assay on OVCAR-4 ovarian, 16.4 µM.

`CC[C@@]1(O)C(=O)OCc2c1cc1n(c2=O)Cc2c-1nc1ccccc1c2/C=N/NC(=O)c1ccc(N)cc1`: the TGI in the assay with TK-10 renal is > 100 µM; in the assay on U251 CNS it was 7.63 µM; in the assay on DU-145 prostate it was 16.8 µM; in the assay on MDA-N, > 37.6 µM; in the assay with SK-MEL-5 melanoma, 1.1 µM; in the assay on LOX IMVI melanoma it was 0.5 µM. The TGI in the assay with OVCAR-5 ovarian is > 100 µM; in the assay with KM12 colon, > 75.9 µM; with HCT-116 colon, 12 µM; with OVCAR-4 ovarian, > 100 µM.

For the compound `CC(Cl)CC(=O)OCC1CCCN2CCCCC12` (stereo not given), the TGI in the assay on TK-10 renal, in the assay on U251 CNS, in the assay on DU-145 prostate, with MDA-N, with SK-MEL-5 melanoma and with LOX IMVI melanoma was > 100 µM throughout. Besides, the TGI in the assay on OVCAR-5 ovarian, in the assay with KM12 colon, with HCT-116 colon and in the assay on OVCAR-4 ovarian was > 100 µM throughout.

Consider `C=C1C[C@H](O)[C@H](Br)C(C)(C)C12CCC(C)(Cl)C(Br)C2` (stereo not given in full), for which the TGI in the assay on TK-10 renal was 13.1 µM; in the assay on U251 CNS it was 8.91 µM; in the assay on DU-145 prostate, 15.8 µM; in the assay on MDA-N it was 10.8 µM; in the assay with SK-MEL-5 melanoma it was 12.2 µM; in the assay with LOX IMVI melanoma, 20.1 µM. Moreover, the TGI in the assay on OVCAR-5 ovarian amounted to 4.25 µM; in the assay on KM12 colon, 9.88 µM; with HCT-116 colon, 16.1 µM; with OVCAR-4 ovarian, 7.95 µM.

As to `O=C(c1cc2c(c3ccccc13)NC1(CCCCC1)N=C2C(F)(F)F)C(F)(F)F`, the TGI is 14 µM in the assay with TK-10 renal; 13.9 µM with U251 CNS; 19.6 µM in the assay on DU-145 prostate; 14.2 µM with MDA-N; 18.2 µM with SK-MEL-5 melanoma; 12.1 µM with LOX IMVI melanoma. Moreover, the TGI in the assay on OVCAR-5 ovarian is 21.5 µM; in the assay on KM12 colon, 14.2 µM; in the assay on HCT-116 colon, 12.6 µM; with OVCAR-4 ovarian, 14.9 µM.

For the compound `COC(=O)C12OC3CO[Si](C(C)C)(C(C)C)O[Si](C(C)C)(C(C)C)OC3C1Oc1nc(=O)ccn12` (stereo not given), the TGI in the assay on TK-10 renal was 30.9 µM; with U251 CNS, 29.6 µM; in the assay on DU-145 prostate it was 32.5 µM; with MDA-N it was 32.7 µM; in the assay on SK-MEL-5 melanoma, 29.7 µM; with LOX IMVI melanoma, 31.6 µM. For the same compound, the TGI with OVCAR-5 ovarian worked out at 28.6 µM; in the assay on KM12 colon it was 29.2 µM; in the assay with HCT-116 colon it was 29.6 µM; with OVCAR-4 ovarian it was 30.8 µM.

Consider `CC(C)N(C(C)C)S(=O)(=O)C[C@]12CC[C@H](CC13OCC(CS(=O)(=O)c1ccccc1)O3)C2(C)C` (stereo not given in full), for which the TGI was 98.7 µM with TK-10 renal; > 100 µM in the assay with U251 CNS; > 100 µM in the assay with DU-145 prostate; > 100 µM in the assay on MDA-N; > 100 µM in the assay on SK-MEL-5 melanoma; > 100 µM in the assay with LOX IMVI melanoma. For the same compound, the TGI in the assay on OVCAR-5 ovarian, in the assay with KM12 colon, in the assay with HCT-116 colon and with OVCAR-4 ovarian was > 100 µM throughout.

For `O=C(N/N=C/c1ccccc1)c1cccc2nc3ccccc3nc12`, the TGI in the assay on TK-10 renal was > 100 µM; in the assay on U251 CNS, > 100 µM; in the assay on DU-145 prostate, > 100 µM; with MDA-N it was > 100 µM; with SK-MEL-5 melanoma it was 18 µM; in the assay with LOX IMVI melanoma it was > 100 µM. For the same compound, the TGI in the assay on OVCAR-5 ovarian, in the assay on KM12 colon, in the assay on HCT-116 colon and in the assay with OVCAR-4 ovarian was > 100 µM each time.

For the compound `CCOC(=O)C(Cl)(NC(=O)OCc1ccccc1)C(F)(F)F` (stereo not given), the TGI in the assay on TK-10 renal, in the assay with U251 CNS, in the assay on DU-145 prostate, in the assay with MDA-N, in the assay on SK-MEL-5 melanoma and with LOX IMVI melanoma was > 100 µM throughout. Further, the TGI in the assay with OVCAR-5 ovarian, in the assay on KM12 colon, in the assay with HCT-116 colon and with OVCAR-4 ovarian was > 100 µM throughout.

Regarding `CCOC(=O)NN(C(=O)OCC)c1c(C)cc(C)cc1C`, the TGI in the assay with TK-10 renal, in the assay with U251 CNS, with DU-145 prostate, with MDA-N, in the assay on SK-MEL-5 melanoma and in the assay on LOX IMVI melanoma was > 100 µM each time. Also, the TGI in the assay with OVCAR-5 ovarian, with KM12 colon, in the assay on HCT-116 colon and with OVCAR-4 ovarian was > 100 µM each time.
